Consider one molecule from patent publication US9748489B2, “Copolymer and organic solar cell comprising same” (LG CHEM, LTD., priority 2013, dated 2017).

The nature of this data set: Solubility of each monomer in chlorobenzene at room temperature. The format is physicochemical. From the text:
The term “solubility of the unit” as used herein means measurement of the solubility in a solution of each unit monomer at room temperature.

≈ marks a conversion by molar mass, not a printed value.

A word on the Solubility: it is how much of the substance goes into solution per volume. Lower therefore signals a poorly soluble substance. `Brc1ccc(-c2ccc(-c3ccc(Br)s3)c3nsnc23)s1` registered a Solubility of 5000 µg/mL (≈ 10.9 mM).
